Results: patent US20210380606A1, “5-AZAINDAZOLE DERIVATIVES AS ADENOSINE RECEPTOR ANTAGONISTS” (Merck Patent GmbH, priority 2018, published 2021)
pIC50: −log10 of the molar value. Where two headings read alike, the source gives them in different places.

Key:
[1] = target: T1, human A2A receptors (Homo sapiens, UniProt P29274); test: Functional human A2A receptor activity, recombinant HEK293 cells, cAMP (HTRF); type: cell-based; details: read-out: A2A (Category)
T1 construct: expressed in transfected cells; host or cells: HEK293
T1 sequence (P29274 whole entry): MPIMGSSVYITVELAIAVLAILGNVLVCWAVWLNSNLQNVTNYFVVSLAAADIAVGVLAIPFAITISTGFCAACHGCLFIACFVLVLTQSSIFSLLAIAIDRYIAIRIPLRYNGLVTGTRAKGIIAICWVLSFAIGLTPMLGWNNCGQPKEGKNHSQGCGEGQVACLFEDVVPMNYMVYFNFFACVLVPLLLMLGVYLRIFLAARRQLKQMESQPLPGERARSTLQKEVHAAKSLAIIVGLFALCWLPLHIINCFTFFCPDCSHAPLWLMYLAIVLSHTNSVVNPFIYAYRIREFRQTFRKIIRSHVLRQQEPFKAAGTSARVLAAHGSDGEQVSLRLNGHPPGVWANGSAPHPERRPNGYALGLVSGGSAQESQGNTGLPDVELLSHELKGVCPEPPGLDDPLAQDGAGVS
In short: (§1)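 cAMP accumulation, determined by HTRF after a 15 min incubation, served as the functional measure of receptor activity.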

[2] = target: T2, human A2B receptors (Homo sapiens, UniProt P29275); test: Functional human A2B receptor activity, recombinant HEK293 cells, cAMP (HTRF); type: cell-based; details: read-out: A2B (Category)
T2 construct: expressed in transfected cells; host or cells: HEK293
T2 sequence (P29275 1-332): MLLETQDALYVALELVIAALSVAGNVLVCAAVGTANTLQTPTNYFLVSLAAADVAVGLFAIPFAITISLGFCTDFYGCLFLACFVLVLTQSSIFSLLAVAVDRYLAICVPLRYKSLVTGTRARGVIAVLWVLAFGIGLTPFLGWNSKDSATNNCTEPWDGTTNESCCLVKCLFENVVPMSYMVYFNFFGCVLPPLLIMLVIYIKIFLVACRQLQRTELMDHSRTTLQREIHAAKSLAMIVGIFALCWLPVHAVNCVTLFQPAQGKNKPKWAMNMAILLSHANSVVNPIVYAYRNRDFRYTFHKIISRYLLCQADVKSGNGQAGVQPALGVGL
In short: as §1

[3] = recombinant HEK293 cells expressing human A2A receptor, agonist NECA, cAMP HTRF, 15 min incubation
[4] = recombinant HEK293 cells expressing human A2B receptor, agonist NECA, cAMP HTRF, 15 min incubation

pIC50 [1]	pIC50 [2]	SMILES	pIC50 [1, 3]	pIC50 [2, 4]
> 7.00	> 6.00	O=C(c1cc2c(cn1)c(-c1cnc3c(F)cc(F)cn13)nn2CC(F)(F)F)N1CC2CCC(C1)C2O (stereo not drawn) [Compound 170, [3-(6,8-Difluoro-imidazo[1,2-a]pyridin-3-yl)-1-(2,2,2-trifluoro-ethyl)-1H-pyrazolo[4,3-c]pyridin-6-yl]-(8-exo-hydroxy-3-aza-bicyclo[3.2.1]oct-3-yl)-methanone]	–	–
> 7.00	> 6.00	O=C(c1cc2c(cn1)c(-c1cnc3c(F)cc(F)cn13)nn2CC(F)(F)F)N1CCOCC(O)C1 (stereo not shown) [Compound 193, [3-(6,8-Difluoro-imidazo[1,2-a]pyridin-3-yl)-1-(2,2,2-trifluoro-ethyl)-1H-pyrazolo[4,3-c]pyridin-6-yl]-(6-hydroxy-1,4-oxazepan-4-yl)-methanone]	–	–
> 7.00	> 6.00	O=C1CN(C(=O)c2cc3c(cn2)c(-c2cnc4c(F)cc(F)cn24)nn3CC(F)(F)F)CCCN1 [Compound 201, 4-[3-(6,8-Difluoro-imidazo[1,2-a]pyridin-3-yl)-1-(2,2,2-trifluoro-ethyl)-1H-pyrazolo[4,3-c]pyridine-6-carbonyl]-1,4-diazepan-2-one]	–	–
> 7.00	> 6.00	O=C(c1cc2c(cn1)c(-c1cnc3c(F)cc(F)cn13)nn2CC(F)(F)F)N1CCC(O)C(F)(F)C1 (stereo not shown) [Compound 203, (3,3-Difluoro-4-hydroxy-piperidin-1-yl)-[3-(6,8-difluoro-imidazo[1,2-a]pyridin-3-yl)-1-(2,2,2-trifluoro-ethyl)-1H-pyrazolo[4,3-c]pyridin-6-yl]-methanone]	–	–
> 7.00	> 6.00	O=C(c1cc2c(cn1)c(-c1cnc3c(F)cc(F)cn13)nn2CC(F)(F)F)N1CCOC2CC21 (stereo not shown) [Compound 205, [3-(6,8-Difluoro-imidazo[1,2-a]pyridin-3-yl)-1-(2,2,2-trifluoro-ethyl)-1H-pyrazolo[4,3-c]pyridin-6-yl]-(2-oxa-5-aza-bicyclo[4.1.0]hept-5-yl)-methanone]	–	–
> 7.00	> 7.00	O=C(c1cc2c(cn1)c(-c1coc3ccccc13)nn2CC(F)(F)F)N1CCC(O)CC1 [Compound 207, [3-Benzofuran-3-yl-1-(2,2,2-trifluoro-ethyl)-1H-pyrazolo[4,3-c]pyridin-6-yl]-(4-hydroxy-piperidin-1-yl)-methanone]	–	–

Continued, molecule first:

SMILES	pIC50 [1]	pIC50 [2]	pIC50 [1, 3]	pIC50 [2, 4]
O=C(c1cc2c(cn1)c(-c1cnc3c(F)cc(F)cn13)nn2CC(F)(F)F)N1C2CCC1CC(O)C2 (stereo not drawn) [Compound 171, [3-(6,8-Difluoro-imidazo[1,2-a]pyridin-3-yl)-1-(2,2,2-trifluoro-ethyl)-1H-pyrazolo[4,3-c]pyridin-6-yl]-(3-exo-hydroxy-8-aza-bicyclo[3.2.1]oct-8-yl)-methanone]	–	–	> 7.00	> 6.00
O=C(c1cc2c(cn1)c(-c1cnc3c(F)cc(F)cn13)nn2CC(F)(F)F)N1C2CCCC1CC2 [Compound 172, (8-Aza-bicyclo[3.2.1]oct-8-yl)-[3-(6,8-difluoro-imidazo[1,2-a]pyridin-3-yl)-1-(2,2,2-trifluoro-ethyl)-1H-pyrazolo[4,3-c]pyridin-6-yl]-methanone]	> 7.00	> 7.00	–	–
O=C(c1cc2c(cn1)c(-c1cnc3c(F)cc(F)cn13)nn2CC(F)(F)F)N1CCC(C(F)F)CC1 [Compound 173, [3-(6,8-Difluoro-imidazo[1,2-a]pyridin-3-yl)-1-(2,2,2-trifluoro-ethyl)-1H-pyrazolo[4,3-c]pyridin-6-yl]-(4-difluoromethyl-piperidin-1-yl)-methanone]	> 7.00	> 6.00	–	–
CC1(CO)CCN(C(=O)c2cc3c(cn2)c(-c2cnc4c(F)cc(F)cn24)nn3CC(F)(F)F)CC1 [Compound 176, [3-(6,8-Difluoro-imidazo[1,2-a]pyridin-3-yl)-1-(2,2,2-trifluoro-ethyl)-1H-pyrazolo[4,3-c]pyridin-6-yl]-(4-hydroxymethyl-4-methyl-piperidin-1-yl)-methanone]	> 7.00	> 6.00	–	–
O=C(c1cc2c(cn1)c(-c1cnc3c(F)cc(F)cn13)nn2CC(F)(F)F)N1CCCC(O)CC1 (stereo not shown) [Compound 177, [3-(6,8-Difluoro-imidazo[1,2-a]pyridin-3-yl)-1-(2,2,2-trifluoro-ethyl)-1H-pyrazolo[4,3-c]pyridin-6-yl]-(4-hydroxy-azepan-1-yl)-methanone]	> 7.00	> 7.00	–	–
O=C(c1cc2c(cn1)c(-c1cnc3c(F)cc(F)cn13)nn2CC(F)(F)F)N1CCCS(=O)(=O)CC1 [Compound 180, [3-(6,8-Difluoro-imidazo[1,2-a]pyridin-3-yl)-1-(2,2,2-trifluoro-ethyl)-1H-pyrazolo[4,3-c]pyridin-6-yl]-1,4-thiazepan-1,1-dioxide-4-yl-methanone]	> 7.00	> 6.00	–	–
CC1(C)CN(C(=O)c2cc3c(cn2)c(-c2cnc4c(F)cc(F)cn24)nn3CC(F)(F)F)CCCO1 [Compound 182, [3-(6,8-Difluoro-imidazo[1,2-a]pyridin-3-yl)-1-(2,2,2-trifluoro-ethyl)-1H-pyrazolo[4,3-c]pyridin-6-yl]-(2,2-dimethyl-1,4-oxazepan-4-yl)-methanone]	> 7.00	> 6.00	–	–
C[C@@H]1COC[C@H](C)N1C(=O)c1cc2c(cn1)c(-c1cnc3c(F)cc(F)cn13)nn2CC(F)(F)F [Compound 183, Cis-[3-(6,8-Difluoro-imidazo[1,2-a]pyridin-3-yl)-1-(2,2,2-trifluoro-ethyl)-1H-pyrazolo[4,3-c]pyridin-6-yl]-(3,5-dimethyl-morpholin-4-yl)-methanone]	> 7.00	> 6.00	–	–
O=C(c1cc2c(cn1)c(-c1cnc3c(F)cc(F)cn13)nn2CC(F)(F)F)N1CCOCC(F)(F)C1 [Compound 185, [3-(6,8-Difluoro-imidazo[1,2-a]pyridin-3-yl)-1-(2,2,2-trifluoro-ethyl)-1H-pyrazolo[4,3-c]pyridin-6-yl]-(6,6-difluoro-1,4-oxazepan-4-yl)-methanone]	> 7.00	> 6.00	–	–
O=C(c1cc2c(cn1)c(-c1cnc3c(F)cc(F)cn13)nn2CC(F)(F)F)N1CC2CCC(C1)C2O (stereo not drawn) [Compound 187, [3-(6,8-Difluoro-imidazo[1,2-a]pyridin-3-yl)-1-(2,2,2-trifluoro-ethyl)-1H-pyrazolo[4,3-c]pyridin-6-yl]-(8-endo-hydroxy-3-aza-bicyclo[3.2.1]oct-3-yl)-methanone]	–	–	> 7.00	> 6.00
[2H]C1([2H])CCOCCN1C(=O)c1cc2c(cn1)c(-c1cnc3c(F)cc(F)cn13)nn2CC(F)(F)F [Compound 190, [3-(6,8-Difluoro-imidazo[1,2-a]pyridin-3-yl)-1-(2,2,2-trifluoro-ethyl)-1H-pyrazolo[4,3-c]pyridin-6-yl]-1,4-oxazepan-5,5-dideuterio-4-yl-methanone]	> 7.00	> 7.00	–	–
O=C(c1cc2c(cn1)c(-c1cnc3c(F)cc(F)cn13)nn2CC(F)(F)F)N1CCCCCO1 [Compound 191, [3-(6,8-Difluoro-imidazo[1,2-a]pyridin-3-yl)-1-(2,2,2-trifluoro-ethyl)-1H-pyrazolo[4,3-c]pyridin-6-yl]-[1,2]oxazepan-2-yl-methanone]	> 7.00	> 6.00	–	–
O=C(c1cc2c(cn1)c(-c1cnc3c(F)cc(F)cn13)nn2CC(F)(F)F)N1CCOC2(CCC2)C1 [Compound 192, [3-(6,8-Difluoro-imidazo[1,2-a]pyridin-3-yl)-1-(2,2,2-trifluoro-ethyl)-1H-pyrazolo[4,3-c]pyridin-6-yl]-(5-oxa-8-aza-spiro[3.5]non-8-yl)-methanone]	> 7.00	> 6.00	–	–
CC(C)(C)OC(=O)N1CC2CC1CN2C(=O)c1cc2c(cn1)c(-c1cnc3c(F)cc(F)cn13)nn2CC(F)(F)F (stereo not shown) [Compound 194, 5-[3-(6,8-Difluoro-imidazo[1,2-a]pyridin-3-yl)-1-(2,2,2-trifluoro-ethyl)-1H-pyrazolo[4,3-c]pyridine-6-carbonyl]-2,5-diaza-bicyclo[2.2.1]heptane-2-carboxylic Acid Tert-Butyl Ester]	> 7.00	> 7.00	–	–
CN(CCNC(=O)OC(C)(C)C)C(=O)c1cc2c(cn1)c(-c1cnc3c(F)cc(F)cn13)nn2CC(F)(F)F [Compound 197, (2-{[3-(6,8-Difluoro-imidazo[1,2-a]pyridin-3-yl)-1-(2,2,2-trifluoro-ethyl)-1H-pyrazolo[4,3-c]pyridine-6-carbonyl]-methyl-amino}-ethyl)-carbamic Acid Tert-Butyl Ester]	> 7.00	> 6.00	–	–
O=C(c1cc2c(cn1)c(-c1cnc3c(F)cc(F)cn13)nn2CC(F)(F)F)N1CC2COC(C2)C1 (stereo not shown) [Compound 199, [3-(6,8-Difluoro-imidazo[1,2-a]pyridin-3-yl)-1-(2,2,2-trifluoro-ethyl)-1H-pyrazolo[4,3-c]pyridin-6-yl]-(6-oxa-3-aza-bicyclo[3.2.1]oct-3-yl)-methanone]	> 7.00	> 6.00	–	–
CC(C)(C)OC(=O)NC1COCCN(C(=O)c2cc3c(cn2)c(-c2cnc4c(F)cc(F)cn24)nn3CC(F)(F)F)C1 (stereo not shown) [Compound 204, {4-[3-(6,8-Difluoro-imidazo[1,2-a]pyridin-3-yl)-1-(2,2,2-trifluoro-ethyl)-1H-pyrazolo[4,3-c]pyridine-6-carbonyl]-1,4-oxazepan-6-yl}-carbamic Acid Tert-Butyl Ester]	> 7.00	> 6.00	–	–
